Here are results for four compounds from patent US20240246970A1, “SUBSTITUTED HETERO-BICYCLOCOMPOUNDS AS SUBTYPE SELECTIVE NICOTINIC ACETYLCHOLINE RECEPTOR INHIBITORS” (THE BOARD OF TRUSTEES OF THE UNIVERSITY OF ILLINOIS, priority 2021, published 2024).

In the assay the target is T1, rat α3β4 nAChR (Rattus norvegicus, UniProt P04757+P12392).
T1 construct: expressed in transfected cells; host or cells: HEK293 (rα3β4-HEK293, kept under G-416 selection)
As to the kind of experiment: Calcium influx assay (dual agonist/antagonist, FLIPR calcium 6) in HEK293 cells expressing rat α3β4 nAChR. Format: cell-based. As to the method:
FIGS. 2A-2B show dual agonist/antagonist fluorescence assays. […] For agonist assays, 12 concentrations of test compounds were added to the cells ([…], final concentrations).
FIGS. 3A-3B show concentration response curves. […] Each concentration-response point represents a minimum of two technical replicates and three biological replicates. EC50, Emax, and IC50 values were calculated from corresponding concentration-response curves fitted using the logistical curve in OriginPro.
Assay Description. HEK293 cells expressing the rat α3β4 nAChR were loaded with an intracellular, calcium-sensitive dye. Activation of the receptor results in an increase in the intracellular calcium concentration and a corresponding increase in fluorescent signal. Multiple concentrations of test compounds were first applied to the rα3β4-HEK293 cells and monitored for their ability to activate α3β4 nAChRs.
Cell culture. […] For fluorescence assays, the cells were seeded into 96-well flat bottom, black wall plates, at a density of approximately 50,000 cells per well in 75 μL of media.
Cells seeded at this density grew into a confluent monolayer in 24 h. Ca^2+ fluorescence assays. Ca^2+ uptake was determined using a FLIPR calcium 6 assay.
For dye loading, the fluorescent dye was reconstituted in 10 mL assay buffer according to the manufacturer's protocol. 75 μL of the dye solution was added to each well and the plate was incubated at 37° C. for 1 h. Plates were then transferred to a FlexStation 3 maintained at 37° C.
Dual Agonist/AntagonistAssay. […] For agonist assays, 12 concentrations of test compounds were added to the cells ([…], final concentrations).
Once again, the fluorescence measured for 28 seconds prior to addition and 90 seconds afterwards.
Data reduction. […] Each concentration-response point represents a minimum of two technical replicates and three biological replicates. EC50, Emax, and IC50 values were calculated from corresponding concentration-response curves (see FIGS. 3A-3B) fitted using the logistical curve in OriginPro.

[1] abbreviates: Example 5, α3β4 nAChR, read-out: IC50.

Like-named read-outs stand apart in the source and are kept apart here.

T1 sequence (P04757 26-499): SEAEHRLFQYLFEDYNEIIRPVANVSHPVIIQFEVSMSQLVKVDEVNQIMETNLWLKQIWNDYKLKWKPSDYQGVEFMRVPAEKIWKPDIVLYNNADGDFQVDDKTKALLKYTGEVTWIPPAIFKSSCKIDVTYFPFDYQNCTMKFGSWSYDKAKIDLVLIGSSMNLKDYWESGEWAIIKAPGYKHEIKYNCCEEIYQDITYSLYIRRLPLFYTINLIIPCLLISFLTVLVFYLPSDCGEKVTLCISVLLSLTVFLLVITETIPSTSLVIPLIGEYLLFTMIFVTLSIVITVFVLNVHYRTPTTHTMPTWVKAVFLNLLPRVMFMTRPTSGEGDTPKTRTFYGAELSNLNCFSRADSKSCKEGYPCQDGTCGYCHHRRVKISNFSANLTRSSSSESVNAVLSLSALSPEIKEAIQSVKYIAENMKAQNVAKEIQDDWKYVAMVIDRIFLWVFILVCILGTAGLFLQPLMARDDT
T1 sequence (P12392 21-495): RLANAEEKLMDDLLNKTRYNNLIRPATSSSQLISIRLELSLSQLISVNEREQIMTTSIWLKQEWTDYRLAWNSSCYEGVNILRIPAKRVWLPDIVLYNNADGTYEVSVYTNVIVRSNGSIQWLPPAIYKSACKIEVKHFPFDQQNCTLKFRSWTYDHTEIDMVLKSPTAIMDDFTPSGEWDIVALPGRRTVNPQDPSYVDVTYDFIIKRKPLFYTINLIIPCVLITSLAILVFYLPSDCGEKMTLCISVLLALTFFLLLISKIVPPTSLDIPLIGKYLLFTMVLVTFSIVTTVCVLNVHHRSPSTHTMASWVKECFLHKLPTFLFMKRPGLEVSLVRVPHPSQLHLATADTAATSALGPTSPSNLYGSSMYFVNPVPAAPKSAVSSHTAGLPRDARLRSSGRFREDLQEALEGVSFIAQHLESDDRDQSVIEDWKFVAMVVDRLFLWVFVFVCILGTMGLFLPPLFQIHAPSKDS

Regarding `CC1=CCC2CC1C(c1ccc(F)c(C(F)(F)F)c1)OC2(C)C` (stereo not shown) [drawing 51], the IC50 (IC50, Example 5 text, α3β4 nAChR) was greater than 100 µM.
Regarding `CC1=CCC2CC1C(c1ccnc3ccccc13)N(C)C2(C)C` (stereo not shown), the concentration for half-maximal inhibition (IC50) under setting [1] is 1.4 µM.
As to `CC1=CCC2CC1C(c1ccc(F)c(C(F)(F)F)c1)OC2(C)C` (stereo not shown) [drawing 115], the IC50 (α3β4 nAChR IC50, Table 4, R1 and R2 methyl, R3 NH unless otherwise indicated) was greater than 200 µM.
In the case of `CCN1C(c2ccc(F)c(C(F)(F)F)c2)C2CC(CC=C2C)C1(C)C` (stereo not shown), the IC50 under setting [1] worked out at 0.76 µM.
